Assay results reported in patent US20250368633A1, “AZEPINE FUSED RING COMPOUND AS RIPK1 INHIBITOR AND USE THEREOF” (ARTIVILA BIOPHARMA, priority 2022, published 2025).

What was measured:
RIPK1 kinase = biological target: T1, RIPK1 kinase (Homo sapiens, UniProt Q13546); test: In vitro RIPK1 kinase activity IC50 assay (ADP-Glo); assay type: biochemical; details: ATP 10 μM; MBP substrate 100 μg/mL; 8 concentration points; read-out: IC50 range of compounds for RIPK1 kinase activity
T1 construct: purchased Promega VA7593
T1 sequence (Q13546 1-671): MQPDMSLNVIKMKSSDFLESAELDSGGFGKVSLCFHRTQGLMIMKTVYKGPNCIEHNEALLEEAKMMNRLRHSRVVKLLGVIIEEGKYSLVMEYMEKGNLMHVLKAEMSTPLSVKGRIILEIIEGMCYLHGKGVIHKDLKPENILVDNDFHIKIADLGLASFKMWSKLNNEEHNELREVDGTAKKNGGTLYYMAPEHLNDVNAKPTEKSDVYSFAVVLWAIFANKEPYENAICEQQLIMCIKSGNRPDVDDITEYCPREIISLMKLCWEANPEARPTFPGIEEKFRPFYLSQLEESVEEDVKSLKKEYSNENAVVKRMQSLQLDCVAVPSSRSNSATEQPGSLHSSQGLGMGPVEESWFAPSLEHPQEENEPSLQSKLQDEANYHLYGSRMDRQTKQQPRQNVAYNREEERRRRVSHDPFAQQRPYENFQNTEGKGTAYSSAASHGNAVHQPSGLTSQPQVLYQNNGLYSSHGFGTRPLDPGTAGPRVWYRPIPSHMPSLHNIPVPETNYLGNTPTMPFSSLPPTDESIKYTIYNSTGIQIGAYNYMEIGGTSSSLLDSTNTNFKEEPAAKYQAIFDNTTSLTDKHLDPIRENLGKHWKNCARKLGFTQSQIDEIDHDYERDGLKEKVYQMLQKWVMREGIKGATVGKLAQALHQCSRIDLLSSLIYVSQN
How it was run: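 Human RIPK1 preincubated 15 min at room temperature with compound (8-point 1:5 dilution series, 1% DMSO in kinase buffer D). Reaction then ran 1 h with 10 μM ATP and 100 μg/mL MBP substrate; ADP measured by ADP-Glo luminescence, IC50 from four-parameter nonlinear fit.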

U937 cells = test: EC50 of necroptosis inhibition in U937 cells (TSZ-induced, CellTiter-Glo); assay type: cell-based; details: Homo sapiens, U-937; TSZ (hTNF-α, SM-164, Z-VAD-FMK) 20 hours; 10 concentration points; read-out: EC50 intervals of necroptosis inhibition in U937 cells
How it was run: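 U937 cells pretreated 15 min with compound (10-point, 1:3 series), then necroptosis induced by TSZ (hTNF-α, SM-164, Z-VAD-FMK) for 20 h at 37 °C. Viability measured as ATP by CellTiter-Glo luminescence; inhibition normalised to untreated and TSZ-only wells, EC50 from four-parameter fit.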

Row | Compound | IC50 (RIPK1 kinase) [nM] | EC50 (U937 cells) [nM]
1 | C[C@@H](NC(=O)C(=O)N[C@H]1COc2ccc(C#CC3(O)COC3)cc2N(C)C1=O)c1ccccc1 [Example 132, N^1-((S)-7-((3-hydroxyoxetan-3-yl)ethynyl)-5-methyl-4-oxo-2,3,4,5-tetrahydrobenzo[b][1,4]oxazepin-3-yl)-N^2-((R)-1-phenylethyl)oxalamide] | < 100 | < 100
2 | C[C@@H](NC(=O)C(=O)N[C@H]1COc2ccc(C#CCN3CCC(=O)CC3)cc2N(C)C1=O)c1ccccc1 [Example 139, N^1-((S)-5-methyl-4-oxo-7-(3-(4-oxopiperidin-1-yl)prop-1-yn-1-yl)-2,3,4,5-tetrahydrobenzo[b][1, 4]oxazepin-3-yl)-N^2-((R)-1-phenylethyl)oxalamide] | < 100 | < 100
3 | C[C@@H](NC(=O)C(=O)N[C@H]1COc2ccc(C#CCN3C(=O)CCC3=O)cc2N(C)C1=O)c1ccccc1 [Example 144, N^1-((S)-7-(3-(2,5-dioxopyrrolidin-1-yl)prop-1-yn-1-yl)-5-methyl-4-oxo-2,3,4,5-tetrahydrobenzo[b][1,4]oxazepin-3-yl)-N^2-((R)-1-phenylethyl)oxalamide] | < 100 | < 100
4 | C[C@@H](NC(=O)C(=O)N[C@H]1COc2ccc(C#CCN3CCNC(=O)C3)cc2N(C)C1=O)c1ccccc1 [Example 145, N^1-((S)-5-methyl-4-oxo-7-(3-(3-oxopiperazin-1-yl)prop-1-yn-1-yl)-2,3,4,5-tetrahydrobenzo[b][1, 4]oxazepin-3-yl)-N^2-((R)-1-phenylethyl)oxalamide] | < 100 | < 100
5 | C[C@@H](CNC(=O)C(=O)N[C@H]1COc2ccc(C#CCCO)cc2N(C)C1=O)c1ccccc1 [Example 155, N^1-((S)-7-(4-hydroxybut-1-yn-1-yl)-5-methyl-4-oxo-2,3,4,5-tetrahydrobenzo[b][1,4]oxazepin-3-yl)-N^2-((R)-2-phenylpropyl)oxalamide] | < 100 | < 100
6 | C[C@H](CNC(=O)C(=O)N[C@H]1COc2ccc(C#CCCO)cc2N(C)C1=O)c1ccccc1 [Example 156, N^1-((S)-7-(4-hydroxybut-1-yn-1-yl)-5-methyl-4-oxo-2,3,4,5-tetrahydrobenzo[b][1,4]oxazepin-3-yl)-N^2-((S)-2-phenylpropyl)oxalamide] | < 100 | < 100
7 | C[C@@H](CNC(=O)C(=O)N[C@H]1COc2ccc(C#CC3(O)COC3)cc2N(C)C1=O)c1ccccc1 [Example 158, N^1-((S)-7-((3-hydroxyoxetan-3-yl)ethynyl)-5-methyl-4-oxo-2,3,4,5-tetrahydrobenzo[b][1,4]oxazepin-3-yl)-N^2-((R)-2-phenylpropyl)oxalamide] | < 100 | < 100
8 | C[C@@H](CNC(=O)C(=O)N[C@H]1COc2ccc(C#CCN3CCOCC3)cc2N(C)C1=O)c1ccccc1 [Example 159, N^1-((S)-5-methyl-7-(3-morpholinoprop-1-yn-1-yl)-4-oxo-2,3,4,5-tetrahydrobenzo[b][1,4]oxazepin-3-yl)-N^2-((R)-2-phenylpropyl)oxalamide] | < 100 | < 100
9 | CN1C(=O)C(NC(=O)C(=O)NCCc2cccc(F)c2)CCc2ccc(C#CCCO)cc21 (stereo not drawn) [Example 167, N^1-(3-fluorophenethyl)-N^2-(8-(4-hydroxybut-1-yn-1-yl)-1-methyl-2-oxo-2,3,4,5-tetrahydro-1H-benzo[b]azepin-3-yl)oxalamide] | < 100 | < 100

More lines, main results first:

Row | IC50 (RIPK1 kinase) [nM] | Compound | EC50 (U937 cells) [nM]
10 | < 100 | C[C@@H](NC(=O)C(=O)N[C@H]1COc2ccc(C#CCN3CC[C@H](O)C3)cc2N(C)C1=O)c1ccccc1 [Example 130, N^1-((S)-7-(3-((S)-3-hydroxypyrrolidin-1-yl)prop-1-yn-1-yl)-5-methyl-4-oxo-2,3,4,5-tetrahydrobenzo[b][1,4]oxazepin-3-yl)-N^2-((R)-1-phenylethyl)oxalamide] | < 100
11 | < 100 | C[C@@H](NC(=O)C(=O)N[C@H]1COc2ccc(C#CC3CCN(CC#N)CC3)cc2N(C)C1=O)c1ccccc1 [Example 137, N^1-((S)-7-((1-(cyanomethyl)piperidin-4-yl)ethynyl)-5-methyl-4-oxo-2,3,4,5-tetrahydrobenzo[b][1, 4]oxazepin-3-yl)-N^2-((R)-1-phenylethyl)oxalamide] | < 100
12 | < 100 | C[C@@H](NC(=O)C(=O)N[C@H]1COc2ccc(C#CCN3CCC(O)CC3)cc2N(C)C1=O)c1ccccc1 [Example 138, N^1-((S)-7-(3-(4-hydroxypiperidin-1-yl)prop-1-yn-1-yl)-5-methyl-4-oxo-2,3,4,5-tetrahydrobenzo[b][1,4]oxazepin-3-yl)-N^2-((R)-1-phenylethyl)oxalamide] | < 100
13 | < 100 | C[C@@H](NC(=O)C(=O)N[C@H]1COc2ccc(C#CCN3CCOCC3)cc2N(C)C1=O)c1ccccc1 [Example 140, N^1-((S)-5-methyl-7-(3-morpholinoprop-1-yn-1-yl)-4-oxo-2,3,4,5-tetrahydrobenzo[b][1,4]oxazepin-3-yl)-N^2-((R)-1-phenylethyl)oxalamide] | < 100
14 | < 100 | C[C@@H](NC(=O)C(=O)N[C@H]1COc2ccc(C#CCN(C)C)cc2N(C)C1=O)c1ccccc1 [Example 146, N^1-((S)-7-(3-(dimethylamino)prop-1-yn-1-yl)-5-methyl-4-oxo-2,3,4,5-tetrahydrobenzo[b][1,4]oxazepin-3-yl)-N^2-((R)-1-phenylethyl)oxalamide] | < 100
15 | < 100 | C[C@@H](NC(=O)C(=O)N[C@H]1COc2ccc(C#CC3CN(CC#N)C3)cc2N(C)C1=O)c1ccccc1 [Example 148, N^1-((S)-7-((1-(cyanomethyl)azetidin-3-yl)ethynyl)-5-methyl-4-oxo-2,3,4,5-tetrahydrobenzo[b][1, 4]oxazepin-3-yl)-N^2-((R)-1-phenylethyl)oxalamide] | < 100
